Assay results from patent publication US20260224756A1, “Methods Of Cellular Imaging And Inorganic Nanoimaging Agents For Same” (Cornell University, priority 2023, published 2026).
“Also recorded” adds a separate entry of the source.

How the values were obtained:
Type in all cases: in vivo, mouse
osteocytes [1] = test: Combined acute and extended C'Dot clearance from osteocytes in non-drugged and drugged groups; conditions: for impact on combined acute and extended C'Dot clearance (FIG. 18): male mice; for impact on combined acute and extended C'Dot clearance (FIG. 19): male mice (so in the source)
Description: Osteocyte C'Dot Endocytosis and Metabolism: C'Dots and their rapid uptake and clearance from osteocytes was used to study endocytosis in living bone tissue. In endocytosis experiments, different drugs are preincubated in the foot (injected in the same manner) prior to C'Dot application and incubation. Drugs to target different types of endocytic pathways, including non-receptor mediated endocytosis and clathrin mediated endocytosis, were used. The same clearance imaging was performed to see how the drugs impact the cellular uptake and retention of the nanoparticles over time.
Additionally, this experiment was performed again with a short, 5 minute incubation and more rapid imaging to see what the acute impacts of the drugs were on C'Dot uptake.

osteocytes [2] = test: Endocytosis Inhibition Experiment: Dyngo4a or MβCD pre-incubation before C'Dot injection and clearance imaging; conditions: for changes in uptake and retention of C'Dots into osteocytes (FIG. 17): RGD and PEG C'Dots; for number of cells visualized and quantified at the initial imaging timepoint compared to untreated control: RGD-C'Dots, 30 minute preincubation of drug
Description: C'Dot Injection and Incubation: Mice were anesthetized with 2-3% isoflurane mixed with medical grade air in an induction chamber for 3 minutes prior to injection. During injection, mice were kept under 2% isoflurane with a nose cone. A 10 μL subcutaneous injection of 10 μM C'Dots was then administered over the third metatarsal (MT3). C'Dots were incubated for 1 hour prior to MT3 isolation (n=4-5/group/sex). Mice were allowed normal cage activity during their incubation time, and were re-anesthetized immediately before MT3 isolation.
C'Dot Imaging: C'Dot fluorescent signal inside the MT3 was visualized with multiphoton microscopy (MPM) (Bergamo II, Thorlabs) as previously described (Matthews 2023). Briefly, a 20× immersion objective (XLUMPLFLN, Olympus), 1090 nm wavelength excitation, and a >647 nm longpass filter acquisition were used for Cy5 encapsulated C'Dots. Images were captured at 1024×1024 pixel density and 0.588 μm pixel resolution. For the C'Dot clearance study, a 35 μm z-stack was taken for each mouse, starting 20 μm beneath the bone surface, with 0.3 μm steps between each slice and 7 frame averaging per slice. These z-stacks were taken every 15 minutes for almost 3 hours after the initial 1 hour incubation.
C'Dot Image Analysis: Z-stacks were analyzed in ImageJ (NIH) as previously described (Matthews 2023). Briefly, a macro was created to interpolate the regions of interest across the z-stack as well as filter the images. Then 3D segmentation was run, creating objects for all cell volumes over a threshold intensity. The lower bound for threshold intensity was established as the mean plus 3× standard deviation of background fluorescence. Segmented objects were then filtered by surface area (>1000 pixels) to ensure only full cell volumes were counted, and mean intensity for each object was quantified using the 3D manager tool. Intensities were normalized to background within each z-stack.
Endocytosis Inhibition Experiment: The small molecule Dyngo4a was used as a potent Dynasore analogue to evaluate the impact of dynamin-mediated endocytosis inhibition. A pre-incubation of Dyngo4a (10 μL, 30 μM) was subcutaneously injected above the MT3 30 minutes prior to C'Dot injection and subsequent imaging. Dyngo4a was diluted from a stock solution in DMSO to the working concentration in 1×PBS. Dyngo4a was kept at […] and was defrosted prior to use. Methyl-β-cyclodextrin (MβCD) was used as a depletor of plasma membrane cholesterol to evaluate the impact of cholesterol-mediated, lipid raft-based endocytosis inhibition. A pre-incubation of MβCD (10 μL, 10 mM) was subcutaneously injected 30 minutes before C'Dot injection. MβCD was diluted from a powder in 1×PBS. MβCD was kept at 4 C and warmed to room temperature prior to use. Both drugs were tested across all groups: male and female, PEG- and RGD-C'Dots (n=4-5/group/sex).
Statistical Analyses: Clearance study analysis was done using a student's t-test, 2-way ANOVAs, and regression analyses, including non-linear (One Phase Decay) and linear. Analyses were performed in GraphPad Prism version 9.0 for Mac OS X (GraphPad Software).
METHODS: Silica core poly(ethylene glycol) shell (core-shell) nanoparticles covalently encapsulating Cy5 dye (PE G-C'Dots) were created using a modified Stober condensation in water. RGD-C'Dots were created by surface functionalizing C'Dot surface with amino acid motifs that bind to the extracellular RGD domain of integrin proteins. Skeletally mature C57BL/6J mice age 16-18 weeks were used for these studies (n=4-5/group/sex). C'Dot Injections: Under inhaled isoflurane anesthesia, PEG- or RGD-C'Dots were injected subcutaneously above the third metatarsal (MT3) in the mouse hind paw at a concentration of 10 μM (FIG. 9). C'Dots were incubated for 45 minutes with mice allowed normal cage activity. […]

osteocytes [3] = test: Quantification of C'Dot Subcellular Localization within osteocyte cell bodies
Description: Quantification of C'Dot Subcellular Localization: Individual frames from z-stacks taken after a 45 minute C'Dot incubation were analyzed for subcellular localization within osteocytes under different study conditions. Filtering with a gaussian blur was performed prior to thresholding of signal and particle analysis to identify cellular regions of interest (ROIs). These ROIs were overlayed onto the original image. Cells with distinct subcellular localization of C'Dots were counted as a percentage of total cells. Other cells had saturated or non-distinct signal. Cells with C'Dot signal in with a rim phenotype were also quantified by-eye. Two blinded individuals quantified the images and averaged consensus data was used in the final results.
METHODS: Silica core poly(ethylene glycol) shell (core-shell) nanoparticles covalently encapsulating Cy5 dye (PE G-C'Dots) were created using a modified Stober condensation in water. RGD-C'Dots were created by surface functionalizing C'Dot surface with amino acid motifs that bind to the extracellular RGD domain of integrin proteins. Skeletally mature C57BL/6J mice age 16-18 weeks were used for these studies (n=4-5/group/sex). C'Dot Injections: Under inhaled isoflurane anesthesia, PEG- or RGD-C'Dots were injected subcutaneously above the third metatarsal (MT3) in the mouse hind paw at a concentration of 10 μM (FIG. 9). C'Dots were incubated for 45 minutes with mice allowed normal cage activity. Pre-incubation with Dyngo-4a (Abcam) or Methyl-β-cyclodextrin (Sigma Aldrich) for 30 minutes prior to C'Dot injection was used to inhibit dynamin activity or cholesterol lipid raft formation in treated groups. Imaging: After incubation, the MT3 was surgically isolated and stabilized using a metal 3-pin system in re-anesthetized mice'. […] Image Quantification: Mean intensity and cell count of the C'Dot tagged osteocytes were quantified in ImageJ (NIH) using 3D segmentation and were normalized to background intensity. Subcellular localization of C'Dots was quantified by eye from a single frame of the first z-stack of each clearance experiment. […]

Row | Compound | impact on combined acute and extended C'Dot clearance (FIG. 18) (osteocytes [1]) | impact on combined acute and extended C'Dot clearance (FIG. 19) (osteocytes [1]) | change of PEG-C'Dot clearance from untreated control (osteocytes [2]; PEG-C'Dots, males and females, Dyngo4a preincubation) | changes in uptake and retention of C'Dots into osteocytes (FIG. 17) (osteocytes [2]) | RGD-C'Dot signal at the end of the imaging experiment (osteocytes [2]; female mice, Dyngo4a preincubation) | number of cells visualized and quantified at the initial imaging timepoint compared to untreated control (osteocytes [2]; female mice) | RGD C'Dot signal intensity and retention compared to untreated control (osteocytes [2]; male mice, Dyngo4a pre-incubation) | RGD-C'Dot signal at the end of the imaging experiment (osteocytes [2]; male mice, Dyngo4a preincubation) | number of cells visualized and quantified at the initial imaging timepoint compared to untreated control (osteocytes [2]; male mice) | change in cells with discrete localization of RGD C'Dot signal after drug pre-incubation (osteocytes [3]; females, pre-incubation with drug) | cells with discrete localization of RGD C'Dot signal after drug pre-incubation (osteocytes [3]; males, pre-incubation with drug) [%] | RGD C'Dot signal compared to untreated control (osteocytes [2]; female group, MβCD pre-incubation) | PEG C'Dot signal compared to untreated control (osteocytes [2]; male and female PEG C'Dot groups, MβCD pre-incubation) | RGD C'Dot signal compared to untreated control (osteocytes [2]; male group, MβCD pre-incubation) | RGD C'Dot signal compared to untreated control (osteocytes [2]; male group, MβCD pre-incubation, listed as M (3CD)) | change in percentage of cells with subcellular localization after drug pre-incubation (osteocytes [3]; any group)
1 | O=C(N/N=C/c1cc(O)c(O)cc1O)c1cc2ccccc2cc1O [Dyngo4a] | has an impact only on the RGD C'Dots | does not have an impact on either C'Dot type | neither males or females having significant change | significant changes in uptake and retention | near zero by the end of the experiment | no statistically significant impact | significantly increased | maintained until the end of the imaging experiment | significantly higher | non-significant decrease; also recorded: no statistically significant impact | 25 | – | – | – | – | –
2 | Methyl-β-cyclodextrin [MβCD] | has an impact on both C'Dot types | has an impact on both C'Dot types | – | significant changes in uptake and retention | – | – | – | – | – | – | – | significant increase | only males retained a significant increase in signal | significant increase | no effect | did not significantly change
